Reference: paper PMC6934184, “Selective DNA-PKcs inhibition extends the therapeutic index of localized radiotherapy and chemotherapy” (The Journal of Clinical Investigation, 2019)

Molecular target: T1, IKBKE (IKK epsilon) (Homo sapiens, UniProt Q14164)
T1 construct: purchased Thermo Fisher Scientific (Life Technologies) SelectScreen
Test: SelectScreen Z'LYTE
Type: biochemical
In short: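 Percent values come from Thermo SelectScreen profiling of NU5455, combining activity and binding assays. CSF1R was run in Z'LYTE format at Km app ATP, and CAMK1 in Adapta format with ATP listed at 10.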

T1 sequence (Q14164 whole entry): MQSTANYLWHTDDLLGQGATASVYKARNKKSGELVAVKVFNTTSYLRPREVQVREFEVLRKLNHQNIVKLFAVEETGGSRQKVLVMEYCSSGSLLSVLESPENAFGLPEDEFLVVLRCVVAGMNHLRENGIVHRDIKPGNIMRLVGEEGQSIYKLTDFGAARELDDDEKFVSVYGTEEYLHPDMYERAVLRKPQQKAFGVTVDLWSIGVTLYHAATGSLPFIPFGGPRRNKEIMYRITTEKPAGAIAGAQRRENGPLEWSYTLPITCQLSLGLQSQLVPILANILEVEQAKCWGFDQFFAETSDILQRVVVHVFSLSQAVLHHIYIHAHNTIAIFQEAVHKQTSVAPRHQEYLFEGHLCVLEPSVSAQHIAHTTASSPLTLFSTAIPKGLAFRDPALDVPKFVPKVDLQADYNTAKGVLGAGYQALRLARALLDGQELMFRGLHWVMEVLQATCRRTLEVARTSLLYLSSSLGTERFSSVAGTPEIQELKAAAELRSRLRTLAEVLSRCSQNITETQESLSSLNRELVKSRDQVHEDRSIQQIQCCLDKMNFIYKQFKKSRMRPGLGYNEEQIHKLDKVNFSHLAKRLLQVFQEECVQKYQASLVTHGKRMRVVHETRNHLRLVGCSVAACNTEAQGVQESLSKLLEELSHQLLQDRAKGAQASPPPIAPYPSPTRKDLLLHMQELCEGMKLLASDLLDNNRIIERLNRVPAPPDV

Molecule `CN(C(=O)CN1CCOCC1)c1ccc2sc3c(-c4cccc5c(=O)cc(N6CC7CCC(C6)O7)oc45)cccc3c2c1` [NU5455] has an inhibition at 1 µM of -0.7%.
